Tests used:
Conditions in all cases: incubation time: 72 h
[1] = test system: CAL-120; assay: normalised response (% of control), CellTiter-Glo; higher = more viable cells (100 = DMSO, 0 = benzethonium chloride kill control)
Protocol: (§1)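 DSRT, 72 h incubation, CellTox Green / CellTiter-Glo readout. Signal is normalised to DMSO and benzethonium chloride controls. Value is the normalised response at dose 3.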

[2] = test system: MDA-MB-436; assay: as above
Protocol: as §1

[3] = test system: MDA-MB-231; assay: as above
Protocol: as §1

[4] = test system: CAL-51; assay: as above
Protocol: as §1

[5] = test system: HCC1599; assay: as above
Protocol: as §1

[6] = test system: DU-4475; assay: as above
Protocol: as §1

[7] = test system: HCC1143; assay: as above
Protocol: as §1

[8] = test system: MDA-MB-468; assay: as above
Protocol: as §1

[9] = test system: BT-549; assay: as above
Protocol: as §1

[10] = test system: CAL-85-1; assay: as above
Protocol: as §1

[11] = test system: SK-BR-3; assay: as above
Protocol: as §1

[12] = test system: Hs578T; assay: as above
Protocol: as §1

[13] = test system: CAL-148; assay: as above
Protocol: as §1

[14] = test system: MDA-MB-453; assay: as above
Protocol: as §1

[15] = test system: HDQ-P1; assay: as above
Protocol: as §1

[16] = test system: MFM-223; assay: as above
Protocol: as §1

[17] = test system: HCC1937; assay: as above
Protocol: as §1

[18] = test system: MCF-10A; assay: as above
Protocol: as §1

[19] = test system: BT-474; assay: as above
Protocol: as §1

[20] = test system: CAL-120; assay: normalised response (% of control), CellTox Green; higher = less cell death (100 = DMSO, 0 = benzethonium chloride kill control)
Method in brief: (§2)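 The table gives the normalised signal for a single concentration in each entry. Breast cancer cell lines were seeded (20 µl suspension) into 384-well plates holding compound at 5 concentrations in 10-fold steps over a compound-specific 10,000-fold range and incubated 72 h, then read for CellTox Green fluorescence (485/520 nm) and CellTiter-Glo luminescence. Normalisation on each plate used 0.1 % DMSO (100) and a positive kill control (0).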

[21] = test system: MDA-MB-436; assay: as above
Method in brief: as §2

[22] = test system: MDA-MB-231; assay: as above
Method in brief: as §2

[23] = test system: CAL-51; assay: as above
Method in brief: as §2

[24] = test system: HCC1599; assay: as above
Method in brief: as §2

[25] = test system: DU-4475; assay: as above
Method in brief: as §2

[26] = test system: MDA-MB-468; assay: as above
Method in brief: as §2

[27] = test system: BT-549; assay: as above
Method in brief: as §2

[28] = test system: CAL-85-1; assay: as above
Method in brief: as §2

[29] = test system: CAL-148; assay: as above
Method in brief: as §2

[30] = test system: MDA-MB-453; assay: as above
Method in brief: as §2

[31] = test system: HDQ-P1; assay: as above
Method in brief: as §2

[32] = test system: MCF-10A; assay: as above
Method in brief: as §2

[33] = test system: BT-474; assay: as above
Method in brief: as §2

[34] = test system: HCC1143; assay: as above
Method in brief: as §2

[35] = test system: Hs578T; assay: as above
Method in brief: as §2

[36] = test system: MFM-223; assay: as above
Method in brief: as §2

[37] = test system: HCC1937; assay: as above
Method in brief: as §2

[38] = test system: CAL-120; assay: normalised response (% of control), CellTiter-Glo; higher = more viable cells (100 = DMSO, 0 = benzethonium chloride kill control); remark: listed apart in the source
Method in brief: as §2

[39] = test system: MDA-MB-436; assay: as above; remark: listed apart in the source
Method in brief: as §2

[40] = test system: MDA-MB-231; assay: as above; remark: listed apart in the source
Method in brief: as §2

[41] = test system: CAL-51; assay: as above; remark: listed apart in the source
Method in brief: as §2

[42] = test system: HCC1599; assay: as above; remark: listed apart in the source
Method in brief: as §2

[43] = test system: DU-4475; assay: as above; remark: listed apart in the source
Method in brief: as §2

[44] = test system: HCC1143; assay: as above; remark: listed apart in the source
Method in brief: as §2

[45] = test system: MDA-MB-468; assay: as above; remark: listed apart in the source
Method in brief: as §2

[46] = test system: BT-549; assay: as above; remark: listed apart in the source
Method in brief: as §2

[47] = test system: CAL-85-1; assay: as above; remark: listed apart in the source
Method in brief: as §2

[48] = test system: SK-BR-3; assay: as above; remark: listed apart in the source
Method in brief: as §2

[49] = test system: Hs578T; assay: as above; remark: listed apart in the source
Method in brief: as §2

[50] = test system: CAL-148; assay: as above; remark: listed apart in the source
Method in brief: as §2

[51] = test system: MDA-MB-453; assay: as above; remark: listed apart in the source
Method in brief: as §2

[52] = test system: HDQ-P1; assay: as above; remark: listed apart in the source
Method in brief: as §2

[53] = test system: MFM-223; assay: as above; remark: listed apart in the source
Method in brief: as §2

[54] = test system: HCC1937; assay: as above; remark: listed apart in the source
Method in brief: as §2

[55] = test system: MCF-10A; assay: as above; remark: listed apart in the source
Method in brief: as §2

[56] = test system: BT-474; assay: as above; remark: listed apart in the source
Method in brief: as §2

SMILES | normalised response [20] [%] | normalised response [21] [%] | normalised response [22] [%] | normalised response [23] [%] | normalised response [24] [%] | normalised response [25] [%] | normalised response [26] [%] | normalised response [27] [%] | normalised response [28] [%] | normalised response [29] [%] | normalised response [30] [%] | normalised response [31] [%] | normalised response [32] [%] | normalised response [33] [%] | normalised response [34] [%] | normalised response [35] [%] | normalised response [36] [%] | normalised response [37] [%] | normalised response [38] [%] | normalised response [39] [%] | further results
Cn1cc(C[C@@H](N)C(=O)O)c2ccccc21 [1-methyl-D-tryptophan] (50 nM) | 96.8 | 73.2 | 83 | 80.4 | 94.2 | 103 | 99.9 | 88 | 98.5 | 68.5 | 105 | 105 | 102 | 99.9 | – | – | – | – | – | – | normalised response [1]: 104%; normalised response [2]: 102%; normalised response [3]: 98.5%; normalised response [4]: 67.8%; normalised response [5]: 92.6%; normalised response [6]: 100%; normalised response [7]: 99%; normalised response [8]: 92.6%; normalised response [9]: 107%; normalised response [10]: 102%; normalised response [11]: 90.8%; normalised response [12]: 95.4%; normalised response [13]: 90.1%; normalised response [14]: 96%; normalised response [15]: 102%; normalised response [16]: 93.4%; normalised response [17]: 96.2%; normalised response [18]: 102%; normalised response [19]: 103%
CC(C)n1nc(-c2ccc3oc(N)nc3c2)c2c(N)ncnc21 [INK128] (100 nM) | 97.1 | 94.4 | 108 | 87.6 | 95.5 | 94 | 137 | 115 | 101 | 58.8 | 26 | 108 | 95.8 | 96.5 | 8.7 | 65.8 | 93.9 | 96.1 | 30.6 | 48.6 | normalised response [40]: 50.3%; normalised response [41]: 29.3%; normalised response [42]: 68%; normalised response [43]: 66%; normalised response [44]: 39.9%; normalised response [45]: 39.5%; normalised response [46]: 30.7%; normalised response [47]: 35.4%; normalised response [48]: 22.6%; normalised response [49]: 35.1%; normalised response [50]: 32.7%; normalised response [51]: 37.2%; normalised response [52]: 42.6%; normalised response [53]: 32.2%; normalised response [54]: 59.7%; normalised response [55]: 43.5%; normalised response [56]: 50.4%
N[C@@H](Cc1ccc(N(CCCl)CCCl)cc1)C(=O)O [Melphalan] (1250 nM) | 72.2 | 84 | -55.7 | -30.1 | 45.5 | 51.8 | -18.1 | 28.1 | -12 | 4.59 | 25.6 | -17.2 | -50.4 | -13.4 | 95.9 | 35.8 | 10.1 | 18.1 | 50 | 9.28 | normalised response [40]: 0.06%; normalised response [41]: 0.26%; normalised response [42]: 2.61%; normalised response [43]: 0%; normalised response [44]: 34.5%; normalised response [45]: 0.81%; normalised response [46]: 22.1%; normalised response [47]: 0.23%; normalised response [48]: -0.01%; normalised response [49]: 16.4%; normalised response [50]: 7.68%; normalised response [51]: 0.2%; normalised response [52]: 1.18%; normalised response [53]: 0.49%; normalised response [54]: 4.2%; normalised response [55]: 0.24%; normalised response [56]: 1.75%
CO[C@H]1C[C@@H]2CC[C@@H](C)[C@@](O)(O2)C(=O)C(=O)N2CCCC[C@H]2C(=O)O[C@H]([C@H](C)C[C@@H]2CC[C@@H](O)[C@H](OC)C2)CC(=O)[C@H](C)/C=C(\C)[C@@H](O)[C@@H](OC)C(=O)[C@H](C)C[C@H](C)/C=C/C=C/C=C/1C [Sirolimus] (10 nM) | 105 | 69.6 | 116 | 104 | 90.7 | 102 | 157 | 87.2 | 108 | 52.9 | 107 | 109 | 104 | 94.8 | 115 | 59.7 | 91.1 | 97.7 | 67.3 | 79.1 | normalised response [40]: 93.9%; normalised response [41]: 65.5%; normalised response [42]: 98.8%; normalised response [43]: 88.5%; normalised response [44]: 69.1%; normalised response [45]: 51.8%; normalised response [46]: 58.3%; normalised response [47]: 63%; normalised response [48]: 66.4%; normalised response [49]: 67.5%; normalised response [50]: 67.1%; normalised response [51]: 66.2%; normalised response [52]: 82.8%; normalised response [53]: 70.9%; normalised response [54]: 81.5%; normalised response [55]: 102%; normalised response [56]: 83.5%
